According to patent US4973603A, “Platelet activating factor antagonist and methods of use therefor” (priority 1989, dated 1990):
Like-named read-outs stand apart in the source and are kept apart here.

Experiments:
gastric mucosa [1] = details: 1 hour; for Mean Score: scale 0-3 (0 = normal mucosa)
Procedure: Robert and Szabo, In: Selye's Guide to Stress Research, (Vol. 2, A. Selye, Ed.) New York; Van Nostrand Reinhold Co., pp. 22-46 (1983); and Robert et al., Gastroenterology, 77:433-443 (1979). Experimental groups of 5-11 rats (Charles River CD) were fasted for 24 hours before the administration of either aspirin, Formula I or indomethacin by a rubber stomach tube (Rusch No. 8). The animals were killed 1 hour later by carbon dioxide asphyxiation. At that time, 4 ml of 10% aqueous buffered formaldehyde (formalin) was injected directly into the stomach of each animal. […] After 5 minutes of in situ fixation, the stomach and proximal duodenum were removed, opened along the greater curvature, pinned on a cork with mucosa upward, and immersed in 10% formaldehyde until further processing. Szabo, S. et al., J. Pharmacol. Meth., 13:59-66 (1985). The gastric lesions were then evaluated by direct visual inspection.
For comparative purposes, a semiquantitative scale of 0-3 was used to assess the extent of gastric mucosal lesions. Szabo et al., Science, 214:200-202 (1981); and Szabo et al., Gastroenterology, 85:1384-1390 (1983). According to this scale, a score of 0 indicates a normal mucosa; 1 represents the appearance of between 1 and 4 small petechiae; 2 indicates the presence of 5 or more petechiae or hemmorhagic streaks up to 4 mm in length; 3 represents the appearance of erosions longer than 5 mm or confluent hemmorrhages.

arachidonic acid = test: The Mouse Ear Edema Test (arachidonic acid-induced skin edema); format: in vivo, mouse (Charles River CD-1, female); details: 1 hour before arachidonic acid (0.5 mg)
Excerpt: The direct application of arachidonic acid to skin, such as the mouse ear, produces an edematous response which is believed to be mediated by eicosanoids resulting from the actions of both cyclooxygenase and lipoxygenase systems. J. M. Young, D. A. Spires, C. J. Bedford, B. Wagner, S. J. Ballaron and L. M. DeYoung, J. Invest. Dermatol. 82:367-371 (1984); E. E. Opas, R. J. Bonney, and J. L. Hanes J. Invest. Dermatol. 84:253-256 (1985). PAF has been reported to cause the release of arachidonic acid, and as a result, gives rise to increased levels of eicosanoids in the exposed tissues. F. H. Chilton, J. T. Flaherty, C. E. Walsh, M. J. Thomas, R. L. Wykle, L. R. DeChatelet and B. M. Waite, J. Biol. Chem., 257:5402-5407 (1982). Thus, the mouse ear edema test can be used to discover substances which antagonize the effects of PAF.
The test drugs were dissolved in 10 μl ethanol and applied to the inner surface of the left ears of Charles River CD-1 female mice. Control values were obtained by applying 10 μl of ethanol to the right ear so that each mouse served as its own control. One hour later, arachidonic acid (0.5 mg/ear in 10 μl ethanol) was applied to both ears and allowed to act on the skin for one hour. The mice were then killed by cervical dislocation and the ears removed so that all tissue samples were of equivalent areas. The extent of edema in each sample was measured by weighing on an analytical balance.

[2] = tested on: platelet activating factor (PAF); test: PAF Induced Mortality; format: in vivo, mouse (Charles River CD-1, female); details: for protective effect (in words): compared with Formula I
Procedure: The induction of mortality by the injection of low doses of PAF into mice has been described as a method for assessing the effectiveness of agents to antagonize the anaphylactic properties of PAF by J. M. Young, P. J. Maloney, S. W. Jubb and J. S. Clarke, in Prostaglandins, 30:545-551 (1985). Charles River CD-1 female mice (25-30 g) were given intraperitoneal injections of PAF (10 μg) dissolved in 100 μl of 5% ethanol-saline. […] Test drugs were orally administered in 50 μl of peanut oil one hour prior to PAF injection. Control mice were dosed with vehicle only. Mortality was assessed by counting survivors at one hour, two hours, and twenty four hours after the PAF injection.

gastric mucosa [3] = details: common adverse effect of consumption; cited from earlier work
[4] = tested on: platelet activating factor (PAF); test: PAF Induced Paw Edema in the Mouse; format: in vivo, mouse (Charles River CD-1, female); details: 1 hour before PAF (1 ug/paw), 15 min after PAF
Procedure: The experimental procedure was adapted from Calhoun et al., Agents & Actions, 21:306-309 (1987). Charles River CD-1 female mice (20-25 G) were given a dose of Formula I, or phenidone, using peanut oil as a carrier. Control mice were given doses of the carrier alone. The drugs were administered orally in a 50 μl volume of peanut oil. One hour later, 1.0 μg of PAF dissolved in 50 μl of 5% ethanol-saline was injected subcutaneously into the plantar surface of the right hind paw. The volume of this injected foot to the level of the lateral malleous was measured by water displacement immediately before drug administration and again 15 minutes after PAF injection.
The effectiveness of each compound was analyzed in the following manner. The individual paw volumes were compared by a paired t test analysis in which predrug paw volumes were compared to paw volumes 15 minutes after PAF injection to determine the level of statistical significance. The percent inhibition of edema volume was obtained from the ratio of the mean predrug volume to the mean volume after PAF.

[5] = tested on: platelet activating factor (PAF); details: reported by Calhoun et al., Agents & Actions, 21:306-309 (1987); cited from earlier work
[6] = 20 mg/kg oral, 1 hr after PAF (10 μg i.p.)
[7] = 20 mg/kg oral, 2 hrs after PAF (10 μg i.p.)
[8] = 20 mg/kg oral, 24 hrs after PAF (10 μg i.p.)
[9] = 40 mg/kg oral, 1 hr after PAF (10 μg i.p.)
[10] = 40 mg/kg oral, 2 hrs after PAF (10 μg i.p.)
[11] = 40 mg/kg oral, 24 hrs after PAF (10 μg i.p.)

**Q.** For `CC(=O)Oc1ccccc1C(=O)O` [Aspirin, aspirin], which “Mean Score” value (gastric mucosa [1]; 100 mg/kg by stomach tube) is on record?
**A.** Its value is 1.9.

**Q.** With `COc1ccc2c(c1)c(CC(=O)O)c(C)n2C(=O)c1ccc(Cl)cc1` [Indomethacin, indomethacin] as the compound, how does the “Incidence (rats with lesions/total tested)” value (gastric mucosa [1]; 10 mg/kg by stomach tube) read?
**A.** The value was 2/5.

**Q.** And the “Mean Score” value (gastric mucosa [1]; 10 mg/kg by stomach tube)?
**A.** Its value is 0.6.

**Q.** And the “Incidence (rats with lesions/total tested)” value (gastric mucosa [1]; 20 mg/kg by stomach tube)?
**A.** Its value is 6/11.

**Q.** And the “Mean Score” value (gastric mucosa [1]; 20 mg/kg by stomach tube)?
**A.** Its value is 0.77.

**Q.** What about the “% Inhibition of Edema” value (arachidonic acid; 0.05 mg/ear topical) of the same compound?
**A.** The value was 24.1%.

**Q.** And the “% Inhibition of Edema” value (arachidonic acid; 0.10 mg/ear topical)?
**A.** Its value is 21.8%.

**Q.** For `COc1ccc2cc([C@H](C)C(=O)O)ccc2c1` [Naproxen, naproxen, reference compound], which “Survivors (%)” value [2, 6] is on record?
**A.** The value was 40%.

**Q.** And the Survivors/N [2, 6]?
**A.** Its Survivors/N is 4/10.

**Q.** And the “Survivors (%)” value [2, 7]?
**A.** Its value is 40%.

**Q.** And the Survivors/N [2, 7]?
**A.** The Survivors/N was 4/10.

**Q.** What about the “Survivors (%)” value [2, 8] of the same compound?
**A.** Its value is 20%.

**Q.** And the Survivors/N [2, 8]?
**A.** The Survivors/N was 2/10.

**Q.** What about the “Survivors (%)” value [2, 9] of the same compound?
**A.** Its value is 100%.

**Q.** And the Survivors/N [2, 9]?
**A.** The Survivors/N was 5/5.

**Q.** What about the “Survivors (%)” value [2, 10] of the same compound?
**A.** Its value is 60%.

**Q.** And the Survivors/N [2, 10]?
**A.** The Survivors/N was 3/5.

**Q.** What about the “Survivors (%)” value [2, 11] of the same compound?
**A.** Its value is 60%.

**Q.** What about the Survivors/N [2, 11] of the same compound?
**A.** The Survivors/N was 3/5.

**Q.** And the “protective effect (in words)” value [2]?
**A.** Its value is “less protective than Formula I, particularly at longer time intervals”.

**Q.** What about the “gastrointestinal damage (in words)” value (gastric mucosa [3]) of the same compound?
**A.** The value was “gastrointestinal damage, generally manifested as bleeding and/or frank ulceration”.

**Q.** What does the source list for `O=C1CCN(c2ccccc2)N1` [Phenidone, phenidone, reference compound]?
**A.** % Inhibition of Edema ([4]; 40 mg/kg oral): 20.4%; % Inhibition of Edema ([4]; 80 mg/kg oral): 35.7%; Survivors (%) [2, 9]: 20%; Survivors/N [2, 9]: 1/5; Survivors (%) [2, 10]: 20%; Survivors/N [2, 10]: 1/5; Survivors (%) [2, 11]: 20%; Survivors/N [2, 11]: 1/5; protective effect (in words) [2]: less protective than Formula I, particularly at longer time intervals; % Inhibition of Edema (arachidonic acid; 0.063 mg/ear topical): 15.4%; % Inhibition of Edema (arachidonic acid; 0.13 mg/ear topical): 26.6%; % Inhibition of Edema (arachidonic acid; 0.25 mg/ear topical): 24.4%; effectiveness against PAF edema (in words) [5]: effective against PAF edema; gastrointestinal damage (in words) (gastric mucosa [3]): gastrointestinal damage, generally manifested as bleeding and/or frank ulceration
